Reference: patent US6472541B2, “Protecting groups with increased photosensitivities” (The Regents of the University of California, priority 1998, dated 2002)
Marks after values point to notes of the source that are not given here.

Experiments:
[1] = test system: brain slices; test: Two-photon infrared uncaging on brain slices, whole-cell recordings
Protocol: A map was created where the brightness at each picture element was proportional to the maximum current recorded with the laser focused at that position.
Two-photon infrared uncaging on brain slices was also carried out. […] The stream of pulses from the Ti:sapphire laser was raster-scanned across cell bodies and dendrites.

[2] = Mechanism of photolysis (triplet state lifetime); type: physicochemical
Description: The halogenated coumarin derivatives have good dark stability, and high one-photon and two-photon uncaging efficiencies. Without being bound to any particular theory, halogenation of the coumarin may have increased the two-photon cross-sections by lowering the pKa of the chromophore below physiological pH and promoting formation of the more strongly absorbing anion. Also, the heavy atoms may promote intersystem crossing to the triplet, which is believed to be the photochemically reactive state. […] The mechanism of photolysis of compound 7 and compound 23 indicate that the solvolysis occurs via the triplet state with a lifetime of about 1 μs. […] Although compound 6 had the highest cross-section, its photolysis was complicated by multiple secondary photoproducts. The monobromo compound (compound 5) was much more tractable and easily formed caged compounds.

[3] = test system: rat cortical neurons; test: One-photon UV uncaging of caged glutamate on brain slices, neuronal responses; type: cell-based; settings: one-photon UV uncaging at 365 nm, 10 mW, average
Protocol: The photolabile protecting groups can be uncaged by one-photon or two-photon photolysis. One-photon ultraviolet uncaging experiments were carried out on brain slices. In particular, compound 7 was used to deliver glutamate to rat cortical neurons. One-photon UV uncaging of caged glutamate compound at 365 nm released the glutamate. Neuronal responses were measured after directly stimulating cells as described in Sawatari and Callaway, Nature 380:442-446 (1996). The cells were exposed to compound 7 (Bhc-Glu) or γ-(α-carboxy-2-nitrobenzyl)glutamate, trifluoroacetate salt (compound 1, CNB-glutamate). The one-photon uncaging was carried out as described in FIG. 1 depicts the lower power needed to uncage compound 7 (Bhc-Glu) in the neuron sample in comparison to compound 1 (alpha-carboxy nitrobenzyl-caged glutamate, CNB-Glu). At 10 mW the compound 7-stimulated neurons respond, on average, at amplitudes 80% of their maximum, while compound 1-stimulated neurons are responding at less than 20% of their maximum amplitudes.

[4] = One-photon photolysis quantum efficiency (UV irradiation, HPLC analysis); type: physicochemical; settings: 365 nm
Protocol: (§1) The electronic absorption and emission properties of the compounds were measured and the stability of the compounds toward hydrolysis in the dark was tested. Stability in the dark can be used to help identify photolabile protecting groups that can be used in a variety of different conditions. Specifically, the quantum efficiencies for one-photon excitation and rates of hydrolysis in the dark were determined.
[…] The duration of each irradiation period was controlled by an electronic shutter. Between each irradiation, a small aliquot (10 μL) of the solution was removed for analysis by reversed phase HPLC with a Betabasic-18 column eluted with a isocratic mixture of 60% acetonitrile and water containing 0.1% trifluoracetic acid at a flow rate of 0.8 mL/min, using absorbance detection at 325 nm. […] […] Quantum efficiencies were calculated as (Iσt90%)^−1, where I is the irradiation intensity in einsteins (cm^−2s^−1), σ is the decadic extinction coefficient in cm^2mol^−1 (10^3 times ε, the usual extinction coefficient in M^−1cm^−1), and t90% is the irradiation time in seconds for 90% conversion to product. […] Dark hydrolysis rates were measured similarly except without illumination.

[5] = Electronic absorption and emission properties; type: physicochemical
Protocol: Generally, chemicals and solvents were used directly as received unless otherwise noted. Acetonitrile, chloroform and dichloromethane were dried over 4A molecular sieves. Proton magnetic resonance spectra (^1H NMR) were recorded on a Gemini 200 MHz spectrometer (Varian; Palo Alto, Calif.) and reported in ppm (δ) downfield from tetramethylsilane with residual solvent peaks as the internal standards. Ultraviolet spectra were recorded on a Cary 3E UV-Visible spectrophotometer (Varian, Palo Alto, Calif., USA). Fluorescence spectra were recorded on a Fluorolog spectrofluorometer (SPEX; Edison, N.J., USA). Mass spectra were recorded on a electrospray mass spectrometer (5989B, Hewlett-Packard; Palo Alto, Calif., USA). Thin layer chromatography (TLC) and column chromatography were performed on precoated silica gel 60F-254 plates and 230-400 mesh silica gel 60 respectively (EM Separations; Gibbstown, N.J., USA). All manipulations of compounds sensitive to near ultraviolet light were performed under an orange safety lamp.
as §1

[6] = In vitro measurements of two-photon uncaging and fluorescence cross-sections; type: physicochemical; settings: pH 7.2
Protocol: Measurements of cross-sections for two-photon uncaging were carried out in microcuvettes with cylindrical cavities having a 1 cm path length and 20 μL total volume (Type 26F, Starna). Femtosecond infrared pulses from a mode-locked titanium-sapphire laser (Spectra-Physics TSUNAMI, pumped by a Spectra-Physics MILLENNIUM) were aimed along the axis of the sample chamber and focused in its center with a 25 mm focal length lens (06LXP003/076, Melles Griot, Irvine, Calif.) optimized for infrared lasers. The pulse parameters were estimated by replacing the caged compound by a solution of fluorescein, a reference compound of known fluorescence quantum yield Qf2 (0.9) and two-photon absorbance cross-section δaF (30 and 38 GM at 740 and 800 nm respectively). The time-averaged fluorescence <F(t)>collected by the detector is given by equation (1)
<F(t)>=0.5φQf2δaFCF<I0^2(t)>∫S^2(r)dV (1)
where φ is the collection efficiency of the detector, CF is the concentration of fluorescein, <I0^2(t)> is the mean squared light intensity, S(r) is a unitless spatial distribution function, and the integral is over the volume of the microcuvette. The fluorescence emitted at right angles to the laser beam was measured through a 535 nm bandpass filter in front of a silicon photodiode radiometer (IL1700, International Light). The collection efficiency φ was estimated as Ay/(4πR^2n^2), where A is the area of the detector (0.38 cm^2), y is the fraction of the integrated emission spectrum transmitted by the interference filter (0.377), measured separately in a spectrofluorometer, R is the distance from the center of the cuvette to the detector (3.83 cm), and n is the refractive index of water (1.333). For photolysis of a caged compound or substrate, the number NP of molecules of product formed per unit time is (eq. 2):
NP=0.5Qu2δaSCS<I0^2(t)>∫S^2(r)dV (2)
where Qu2, δaS, and CS are the quantum efficiency for two-photon uncaging, absorbance cross-section, and concentration of the substrate, respectively. NP was measured by HPLC sampling of the microcuvette as for the one-photon photolysis. The uncaging action cross-section δu2 (≡Qu2δaS) can therefore be estimated by (eq. 3): [formula]
Similarly, when the substrate is also fluorescent, its two-photon fluorescence action cross-section δf2S (≡Qf2SδaS) can be estimated as (eq. 4): [formula]
Here the subscripts S and F distinguish values for the substrate and for the fluorescein reference. If one assumes that one- and two-photon quantum efficiencies are the same, then δu2/Qu1 and δf2S/Qf1S should both equal δaS. In fact, the former values are typically about twice the latter. All of them are directly proportional to the assumed value of Qf2 for fluorescein.

[7] = as above; type: physicochemical; settings: measured at 780 nm on an independent apparatus

For `O=C(O)CC[C@H](NC(=O)OCc1cc(=O)oc2cc(O)c(Br)cc12)C(=O)O` [Compound 7, N-(6-Bromo-7-hydroxycoumarin-4-yl)methoxycarbonyl glutamate], the “Response to laser scans after application of caged compound” value ([1]; Ti:sapphire laser raster-scanned across cell bodies and dendrites) was “scans evoked inward currents”, the “Entry into the cell” value ([1]; photolysis map of neuron) was “did not enter the cell” and the “Change in holding current on application of caged compound (intrinsic agonist activity)” value ([1]; whole-cell recordings, 15 cells, before photolysis) was “did not cause detectable changes in holding current”. For the same molecule, the “Lifetime of triplet state through which solvolysis occurs” value [2] was “about 1 μs”, the “Neuron response amplitude, percent of maximum amplitude” value [3] was 80% and the “Qu1 Quantum efficiency for uncaging with one-photon excitation at 365 nm” value [4] was 0.019. For the same molecule, the “εQu1 One-photon action cross section (product of molar absorptivity and photolysis quantum yield) at 365 nm” value [4] was 329 M⁻¹ cm⁻¹, the “Qf1 Quantum efficiency for fluorescence with one-photon excitation” value [5] was 0.38 and the λem [5] was 474 nm. For the same molecule, the “ε Molar Absorptivity at 365 nm” value ([5]; 365 nm) was 17,300 M^−1cm^−1, the “ε Molar Absorptivity at 400 nm” value ([5]; 400 nm) was 5,400 M^−1cm^−1 and the “λmax Wavelength of peak absorbance” value ([5]; pH 7.2) was 368 nm. For the same molecule, the “ε Molar absorptivity at absorbance peak” value ([5]; pH 7.2, at absorbance peak) was 17,470 M^−1cm^−1, the “δu (740 nm) uncaging action cross-section for two-photon excitation” value ([6]; 740 nm) was 0.98 ± 10^−50 cm^4s/photon and the “δu (800 nm) uncaging action cross-section for two-photon excitation” value ([6]; 800 nm) was 0.37 ± 10^−50 cm^4s/photon. For the same molecule, the “δf fluorescence action cross-section for two-photon excitation” value [7] was 2.2* 10^−50 cm^4s/photon.
